{"source": "patent US20180168215A1", "about": "“NUTRITIONAL COMPOSITIONS CONTAINING INOSITOL AND USES THEREOF” (Mead Johnson Nutrition Company, priority 2016, published 2018)", "key": {"E18 hippocampal neurons": {"test_system": "E18 hippocampal neurons", "assay": "Axon growth in microfluidic devices, immunohistochemistry with β-tubulin III", "assay_type": "cell-based", "settings": "addition of 600 μM inositol vs inositol free media", "source_text": "Example 3 illustrates that inositol exposure increases neuronal axon growth. Generally, an axon is a long, slender projection of a neuron that conducts electrical impulses away from the neuron's cell body. Myelinated axons are generally known as nerve fibers. Axons make contact with other neurons at synapses. Therefore, the healthy status of a neural axon is fundamentally important for proper brain function. The integrity and growth of axons can be measured by immunohistochemistry with β-tubulin III. Indeed, illustrated herein, the absence of inositol causes axon growth to stop and truncate prematurely; while supplementation of inositol provides healthy growth of neuronal axons. […] The axons of hippocampal neurons lost continuity and disintegrated. […] Taken together, inositol is essential for axon development and higher concentrations of inositol benefits the extension of axons."}, "[1]": {"test_system": "hippocampal cultures from embryonic E18 rats", "assay": "Synaptogenesis in embryonic neuronal culture, quantitative immunostaining for Bassoon, Homer and MAP2", "assay_type": "cell-based, rat", "source_text": "Example 4 illustrates that supplementation with inositol produces strong synaptogenic effects. Nerve cells communicate with each other in the brain through specialized junctions, called synapses. These junctions start to form in the human brain before birth and continue to develop at a rapid rate in the early postnatal period. Changes in this synaptogenic process impair the wiring of the brain and can cause developmental disorders. While effects related to caloric intake and selected nutrients on general brain function have been characterized, limited information exists on the specific roles of nutrients and natural nutrients in synapse formation. Accordingly, Example 4 illustrates the effects of inositol on hippocampal neurons and analyzed them by quantitative immunostaining for synaptic markers. Dissociated neuronal cultures were prepared from rat hippocampus and used in this culture system. It was observed that neurons undergo most rapid synaptogenesis at or by day 14 in vitro (14DIV). By day 21 in vitro (21 DIV), most neurons have become mature and synapse formation occurs at a slower rate. Accordingly, testing at day 14 or 21 in vitro therefore allows for distinguishing nutrient effects at different developmental stages. The neurons were grown in either in standard neurobasal NB medium which contains 40 uM inositol according to the manufacturer; or in 200 μM inositol using custom made medium from LifeTechnology that lacks inositol and that was supplemented with inositol to 200 μM; or without inositol using just the custom made medium from the same manufacturer that lacks inositol. The neurons and synapses were determined by staining Bassoon as a presynaptic active zone marker in green fluorescence, Homer as a postsynaptic marker in red, and MAP2 as a dendrite marker in blue. […] Quantitively, increasing inositol to higher concentrations further promoted its synaptogenic effects (see FIG. 4D) at pre-synaptic sites. The pre-synapses were measured by quantifying the number of bassoon in the puncta per 10 micron dendrite. […] The results were determined by quantitative immunostaining for the presynaptic marker (Bassoon) and the excitatory postsynaptic (Homer). (See. FIG. 4E). Indeed, as shown in FIGS. 4A-4C, hippocampal cultures from embryonic E18 rats grown at the indicated inositol concentrations were analyzed by quantitative immunostaining. FIG. 4A illustrates neurons grown under control conditions and stained for the presynaptic marker Bassoon (in green), the postsynaptic scaffold protein Homer (in red), and the dendritic marker MAP2 (in blue). FIG. 4B illustrates neurons grown with supplemented inositol at 200 μM from 4-14 days in vitro. FIG. 4C illustrates neurons grown without inositol. […] Additionally, FIG. 5 illustrates that treatment with inositol promotes the alignment of pre- and post-synaptic sites. […] Hippocampal cultures from embryonic rats were analyzed by quantitative immunostaining. […] In brief, the presynaptic markers were stained with […] and are shown in green and the post-synaptic markers were stained with homer in and are shown in red. The co-localization of pre- and post-synapse was determined the appearance of a yellow signal, which is produced when green color mixes with red. The quantification was analyzed by using Imag J software and co-localization was calculated by counting the numbers of yellow puncta per […] dendrite. Briefly, hippocampal cultures from embryonic rats were analyzed by quantitative immunostaining. […] The pre-synapse size was determined by the puncta size of bassoon; while the post-synapse size by that of homer. The histochemistry images were analyzed by using Image J software."}, "[2]": {"test_system": "Hippocampal cultures from embryonic rats", "assay": "Inositol plus DHA, presynaptic Bassoon puncta by quantitative immunostaining", "assay_type": "cell-based, rat", "settings": "compared to a DMSO control; FIG. 7", "procedure": "Example 5 illustrates synergistic effect of inositol and DHA. FIG. 7 illustrates the effect of inositol in combination with DHA for presynaptic development. Hippocampal cultures from embryonic rats were analyzed by quantitative immunostaining. […] (See FIG. 7)."}, "hippocampal neurons": {"test_system": "hippocampal neurons", "assay": "PDL-coated bead presynaptic formation, immunostaining for synapsin1, bassoon and β-tubulin III", "assay_type": "cell-based, rat", "source_text": "Example 1 illustrates that inositol has a does dependent effect on neurotransmission. Due to the continuum of synapse development in vivo, it is difficult to quantitatively assess synapse development. However, in order to provide at time stamp for synapse development, Example 1 is directed to a PDL-coated bead in a culture medium designed to induce synaptic formation. […] By adding the PDL-coated beads to the axonal compartment of the microfluidic compartment, it allows for the visualization of presynaptic terminal development without the overwhelming signal from somata or dendrites. Indeed, this experimental set-up allows for the subjection of distinct compartments to nutrients of interest. The method used herein is described in the reference, Taylor, A. M. et al. “A microfluidic culture platform for CNS axonal injury regeneration and transport.” Nat Methods, 2005. 2(8): p. 599-605, which is incorporated by reference. Briefly, the microfluidic chip contains four chambers, two at the left side and two at the right connected by microgrooves in the center. […] The images were taken and quantified by using confocal microscopy. […] The measurements were quantified and subjected to statistical analysis by two-way ANOVA."}, "rat hippocampal neurons": {"test_system": "rat hippocampal neurons", "assay": "FM dye release on electrical field stimulation of neurons in microfluidic devices", "assay_type": "cell-based", "settings": "for releasing FM Dye as an indicator of neural transmitter release: 9DIV", "source_text": "Example 1 illustrates that inositol has a does dependent effect on neurotransmission. Due to the continuum of synapse development in vivo, it is difficult to quantitatively assess synapse development. However, in order to provide at time stamp for synapse development, Example 1 is directed to a PDL-coated bead in a culture medium designed to induce synaptic formation. […] By adding the PDL-coated beads to the axonal compartment of the microfluidic compartment, it allows for the visualization of presynaptic terminal development without the overwhelming signal from somata or dendrites. Indeed, this experimental set-up allows for the subjection of distinct compartments to nutrients of interest. The method used herein is described in the reference, Taylor, A. M. et al. “A microfluidic culture platform for CNS axonal injury regeneration and transport.” Nat Methods, 2005. 2(8): p. 599-605, which is incorporated by reference. Briefly, the microfluidic chip contains four chambers, two at the left side and two at the right connected by microgrooves in the center. The cortical and hippocampal dissociated neurons from embryonic rat (E18) and mouse (E17) were seeded in the left (somal) side of the chambers with a density of approximately 3×10^6 cells/ml, yielding approximately 3,000 cells in the somal side of the chamber. The PDL-coated nanobeads were added to the right side of the chamber. In each testing condition, the culture medium contains different nutrient. The immunohistochemistry analysis was performed in order to assess the impact on synaptic development provided by the nutrients. The cultures were fixed using 4% paraformaldehyde for 30 min at room temperature. The cultures then were washed twice with phosphate-buffered saline (PBS) for 5 min, and then permeabilized using PBS with 0.2% Triton X-100 for 30 min. To block nonspecific binding, PBS with 0.2% Triton X-100 and 10% goat serum was used. The primary antibodies were exposed to PBS with 0.2% Triton X-100 and 5% goat serum at 4° C. overnight, followed by brief rinsing of the cultures 3 times for 10 min. They were then incubated them with secondary antibody (conjugated with Alexa Fluor 488 or 568) in PBS for 1 h. The images were taken and quantified by using confocal microscopy. At embryonic Day 18, rat hippocampal neurons were plated on to microfluidic devices and inositol was added to both somal and axonal compartments from second day in vitro. Cultures were exposed with different concentrations of inositol at 200 μM, 600 μM, 1200 μM, or the control 40 μM, every 3 days by completely changing the media every three days. At 9 days in vitro (9DIV) the cultures were loaded with FM dye and electrical field stimulation of somal compartments was performed on each for about one minute."}}}
{"smiles": "O[C@H]1[C@H](O)[C@@H](O)[C@H](O)[C@@H](O)[C@H]1O", "note": "[inositol]", "values": [{"measurement": "axon growth", "setting": "E18 hippocampal neurons", "value": "restore and promote the healthy growth of axons"}, {"measurement": "pre-synaptic puncta density (number of bassoon puncta per 10 micron dendrite)", "setting": "[1]; compared to control as well as DHA at 20 μM, FIG. 4D", "value": "increase the pre-synaptic puncta density in a statistically significant manner"}, {"measurement": "post-synaptic sites as measured by post-synaptic marker (Homer) density", "setting": "[1]; higher concentrations of inositol, compared to the control and DHA at 20 μM, FIG. 4E", "value": "enhance post-synaptic sites"}, {"measurement": "overall health of neuron", "setting": "[1]; increasing inositol", "value": "promotes the overall health of neuron"}, {"measurement": "density of pre- and post-synaptic specializations", "setting": "[1]; increasing inositol from standard 40 μM to 200 μM", "value": "substantially elevates the density of pre- and post-synaptic specializations"}, {"measurement": "effect on synapse number relative to DHA", "setting": "[1]; lowest tested concentrations of inositol", "value": "effects comparable to DHA"}, {"measurement": "size of presynaptic sites (Bassoon puncta size)", "setting": "[1]; supplementation from 4-14 days in vitro, FIG. 6A", "value": "increase the size of presynaptic sites"}, {"measurement": "size of postsynaptic sites (Homer puncta size)", "setting": "[1]; supplementation from 4-14 days in vitro, FIG. 6B", "value": "increase the size"}, {"measurement": "co-localization of pre-synaptic (Bassoon) with post synaptic (Homer) sites", "setting": "[1]; treatment from 4-14 days in vitro, FIG. 5", "value": "increased the extent to which pre-synaptic sites (as measured by Bassoon staining) co-localized with post synaptic sites"}, {"measurement": "synapse number", "setting": "[1]; treatment from 7-14 days in vitro", "value": "increased synapse number"}, {"measurement": "presynaptic Bassoon puncta", "setting": "[2]", "value": "increased the presynaptic Basson puncta"}, {"measurement": "synapsin 1 and bassoon clustering at the bead-axon terminals", "setting": "hippocampal neurons; 10DIV hippocampal neurons, FIGS. 2A and 2B", "value": "increases synapsin 1 and bassoon clustering"}, {"measurement": "presynaptic assembly", "setting": "hippocampal neurons; inositol at 600 μM vs 40 μM control, FIG. 2A", "value": "significantly increases the presynaptic assembly"}, {"measurement": "releasing FM Dye as an indicator of neural transmitter release", "setting": "rat hippocampal neurons; 200 μM inositol vs control wells containing 40 μM inositol", "value": "significant increases in releasing FM Dye"}, {"measurement": "releasing FM Dye as an indicator of neural transmitter release", "setting": "rat hippocampal neurons; 600 μM inositol vs control wells containing 40 μM inositol", "value": "significant increases in releasing FM Dye"}, {"measurement": "neural transmitter releasing, consistency of results", "setting": "rat hippocampal neurons; 600 μM inositol wells", "value": "consistent and robust results with enhanced neural transmitter releasing"}, {"measurement": "concentration at which the highest effects on FM dye releasing were observed", "setting": "rat hippocampal neurons; tested 200, 600, 1200 μM, dose dependent, statistically significant", "value": 600, "unit": "µM"}]}
